Measurements as given in patent US20090092631A1, “GLYCOSYLATED SPECIFICITY EXCHANGERS THAT INDUCE AN ANTIBODY DEPENDENT CELLULAR CYTOTOXICITY (ADCC) RESPONSE” (priority 2007, published 2009).
Ends that are not written are not given here.

How the values were obtained:
HIV-1 IIIB = assay: Neutralization assay (plaque-forming units/syncytia) in U87 cells expressing CD4 and co-receptor; format: cell-based
Protocol: Once it had been determined that the glycosylated specificity exchangers appreciably bound gp120 and human antibody, the antiviral activity of the glycosylated specificity exchangers was evaluated using a neutralization assay that is recognized in the art to reasonably predict the therapeutic efficacy of an HIV vaccine. (See Y. Shi et al., “A new cell line-based neutralization assay for primary HIV type 1 isolates,” AIDS Res Hum Retroviruses 18:957-967 (2002), herein expressly incorporated by reference in its entirety). By this approach, HIV infection of U87 cells that express CD4 and one of the major co-receptors (either CXCR4 or CCR5) were challenged with the glycosylated specificity exchangers and human serum during competition with the CD4 receptor. The infected cells form syncytia, that is, plaques, that were stained and enumerated by light microscopy. Neutralization was then determined by the ability of human serum and glycosylated specificity exchanger to reduce the number of plaque-forming units (PFU) relative to controls.
In brief, the U87 cells were seeded onto a 48 well plate at a concentration of 100,000 cell/well 1 day prior infection with HIV-1 IIIB. On the day of infection, glycosylated specificity exchangers (Seq. ID. Nos. 4-9), human serum and virus stock were diluted in culture medium and incubated in a separate 48 well plate, to a final dilution of 1:10/1:20 for the serum and an appropriate concentration of the virus, according to the titration. The glycosylated specificity exchangers were analyzed at different concentrations to determine the minimal amount required for antiviral activity. The glycosylated specificity exchanger-serum-virus mixture was kept at 37° C. for 1 hr. Then, two hundred microliters of each dilution was distributed into wells containing the U87/CD4 cells. The experiment was performed in quadruplicate in the same plate and in five separate plates.
Controls for the assay included glycosylated specificity exchanger without the coupled sugar, the glycosylated specificity exchanger (coupled with the sugar) and a 1:10/1:20 dilution of heat inactivated human serum, cells and medium only, and cells and medium and serum. […]

HIV IIIB virus [1] = assay: Syncytia inhibition (plaque) assay on U87 CD4+-CXCR4+ cells; format: cell-based, HIV-1; settings: for neutralization values (ranking): non-inactivated human sera (FIGS. 12H and 12I); for neutralization (comparison among glycopeptides): plaque assay U87, single round TZMbl and H9 infectivity assays, HIV IIIB, inactivated human serum
Protocol: The CD4 glycopeptides were studied for inhibition of cell to cell interactions in a plaque assay system using U87 cells (FIG. 7), in a single round infectivity assay with TZMbl cells (FIG. 7) and in an infectivity assay with H9 cells, wherein multiple rounds of replication were allowed (FIG. 8). Infectivity was performed with the HIV IIIB virus and inactivated human serum from healthy individuals was used as the source of the anti-gal antibody.
Neutralization was tested based on the prevention of syncytia formation by HIV-1 infection of adherent U87 glioma cells expressing the CD4 receptor and the CXCR4 co-receptor, previously described by Shi Y, et al., (2002) A new cell line-based neutralization assay for primary HIV type 1 isolates. AIDS Res Hum Retroviruses 18:957-967, herein expressly incorporated by reference in its entirety.
Cells were seeded into 48 well plates (Costar, Corning USA) at a concentration of 10^5 cell/well one day prior to infection. On the day of infection, glycopeptides, pooled AB type human serum from healthy individuals (Cambrex, USA) and previously titrated HIV IIIB virus were diluted in culture medium and pre-incubated in a separate 48 well plate for 1 h at 37° C. The peptides were analyzed at different concentrations to evaluate the minimum dose required for antiviral activity. Two hundred microliters of each dilution were distributed into triplicate wells containing the U87 CD4^+-CXCR4^+ cells and incubated for 12 h after which medium was removed and 1 ml of D-MEM medium was added to the cells. The positive controls were infected cells in the presence or absence of human serum and negative controls consisted of uninfected cells in the presence or absence of human serum and an irrelevant glycosylated peptide. At day five the cells were fixated with methanol-acetone (1:1). The number of plaque-forming units was determined after haematoxylin staining and the index was extracted from the ratio between infected cells treated with the peptides and human serum and cells infected with the virus in the presence of human serum. Each peptide was tested at four different concentrations, in quadruplicates in the same plate and in five different plates, i.e. each peptide was run in twenty wells at each concentration.

HIV IIIB virus [2] = assay: Multiple round infectivity assay in H9 cells (RT activity, day 11); format: cell-based, HIV-1; settings: 1 μg/ml glycopeptide, 5 or 10% human serum
Protocol: An infectivity assay was performed on H9 cells that were infected with HIV IIIB virus. All peptides were run at four different dilutions and each dilution was run in quadruplicates together with a 10% or 5% of pooled AB human serum from healthy individuals. (Cambrex, USA).
H9 cells were infected with 100 TCID50 of the HIV IIIB virus and incubated for 1.5 h at 37° C. after which they were centrifuged, the supernatant was discarded and the cells were re-suspended in RPMI medium for a final concentration of 200,000 cells/ml.
One 48 well plate was run per glycopeptide, containing the four dilutions of the glycopeptide and the four replicates of each one of them, plus a positive control of infected cells (with and without human serum) and a negative control of non-infected H9 cells. Each well contained 500 μl of the infected cells +500 μl of the diluted peptide and the chosen dilution of the human serum.
Plates were incubated at 37° C.+5% CO2 until day 7 when 500 μl of supernatant were collected from each well and stored at −20 degrees until further analysis. An additional 500 μl of fresh RPMI medium with the appropriate dilution of the peptide plus the human serum were added to the wells and incubated at 37 degrees until day 11 when the supernatant was measured for Reverse Transcriptase (RT) activity (Cavidi, Sweden) according to the manufacturer's protocol.

[3] = CD4 peptide Alone (without coupled sugar), 0.1 ug/ml, 0.3 equals 30% inhibition
[4] = CD4 peptide Alone (without coupled sugar), 1 ug/ml, 0.3 equals 30% inhibition
[5] = CD4 peptide Alone (without coupled sugar), 10 ug/ml, 0.3 equals 30% inhibition of HIV replication (syncytia formation)
[6] = Glycosylated Sp. Exchanger & 1:10 dilution human serum, 0.1 ug/ml, 0.3 equals 30% inhibition
[7] = Glycosylated Sp. Exchanger & 1:10 dilution human serum, 1 ug/ml, 0.3 equals 30% inhibition
[8] = Glycosylated Sp. Exchanger & 1:10 dilution human serum, 10 ug/ml, 0.3 equals 30% inhibition
[9] = Glycosylated Sp. Exchanger & 1:20 dilution human serum, 0.1 ug/ml, 0.3 equals 30% inhibition
[10] = Glycosylated Sp. Exchanger & 1:20 dilution human serum, 1 ug/ml, 0.3 equals 30% inhibition
[11] = Glycosylated Sp. Exchanger & 1:20 dilution human serum, 10 ug/ml, 0.3 equals 30% inhibition
[12] = Glycosylated Sp. Exchanger, 0.1 ug/ml, 0.3 equals 30% inhibition
[13] = Glycosylated Sp. Exchanger, 1 ug/ml, 0.3 equals 30% inhibition
[14] = Glycosylated Sp. Exchanger, 10 ug/ml, 0.3 equals 30% inhibition

| Substance | neutralization of the virus (HIV-1 IIIB; [3]) | neutralization of the virus (HIV-1 IIIB; [4]) | neutralization of the virus (HIV-1 IIIB; [5]) | neutralization of the virus (HIV-1 IIIB; [6]) | neutralization of the virus (HIV-1 IIIB; [7]) | neutralization of the virus (HIV-1 IIIB; [8]) | neutralization of the virus (HIV-1 IIIB; [9]) | neutralization of the virus (HIV-1 IIIB; [10]) | neutralization of the virus (HIV-1 IIIB; [11]) | neutralization of the virus (HIV-1 IIIB; [12]) | neutralization of the virus (HIV-1 IIIB; [13]) | neutralization of the virus (HIV-1 IIIB; [14]) | neutralization values (ranking) (HIV IIIB virus [1]) | neutralization (comparison among glycopeptides) (HIV IIIB virus [1]) | neutralization (HIV IIIB virus [2]) | neutralization of the virus (HIV-1 IIIB; Glycosylated Sp. Exchanger & 1:10 dilution human serum, 100 ug/ml, 0.3 equals 30% inhibition) | neutralization of the virus (HIV-1 IIIB; Glycosylated Sp. Exchanger & 1:20 dilution human serum, 100 ug/ml, 0.3 equals 30% inhibition) | neutralization of the virus (HIV-1 IIIB; Glycosylated Sp. Exchanger, 100 ug/ml, 0.3 equals 30% inhibition) |
| --- | --- | --- | --- | --- | --- | --- | --- | --- | --- | --- | --- | --- | --- | --- | --- | --- | --- | --- |
| 7 (QGSFLTKGPSKLNDR; Homo sapien) [compound 7] | neg (Neg = negative <0.30) | neg (Neg = negative <0.30) | neg (Neg = negative <0.30) | 0.439 | 0.461 | 0.454 | neg (Neg = negative <0.30) | neg (Neg = negative <0.30) | neg (Neg = negative <0.30) | neg (Neg = negative <0.30) | neg (Neg = negative <0.30) | neg (Neg = negative <0.30) | – | – | – | – | – | – |
| 8 (TKGPSKLNDRADSRR; Homo sapien) [compound 8] | – | – | – | 0.778 | 0.821 | 0.83 | 0.701 | 0.667 | 0.642 | – | 0.548 | 0.552 | – | – | – | – | – | – |
| TKGPSKLNDRADSRR ({Gal‑α1‑3Gal‑β glyco‑aspartic acid}-TKGPSKLNDRADSRR) [Seq. Id. No. 8, CD4 receptor peptide with Gal-α1-3Gal-β glyco-aspartic acid linked to its N-terminal end] | neg (Neg = negative <0.30) | neg (Neg = negative <0.30) | neg (Neg = negative <0.30) | neg (Neg = negative <0.30) | 0.39 | 0.49 | neg (Neg = negative <0.30) | 0.32 | 0.429 | neg (Neg = negative <0.30) | neg (Neg = negative <0.30) | neg (Neg = negative <0.30) | Highest neutralization values | greater neutralization | 90% | – | – | – |
| KILGNQGSFLTKGPS ({Gal‑α1‑3Gal‑β glyco‑aspartic acid}-KILGNQGSFLTKGPS) [Seq. Id. No. 6, CD4 receptor peptide with Gal-α1-3Gal-β glyco-aspartic acid linked to its N-terminal end] | – | – | – | – | – | – | – | – | – | – | – | – | Highest neutralization values | greater neutralization | 90% | – | – | – |
| 9 (KLNDRADSRRSLWDQ; Homo sapien) [compound 9] | – | – | – | 0.76 | 0.75 | 0.78 | 0.71 | 0.75 | 0.74 | neg (Neg = negative <0.30) | neg (Neg = negative <0.30) | neg (Neg = negative <0.30) | – | – | – | 0.75 | 0.734 | neg (Neg = negative <0.30) |
| QGSFLTKGPSKLNDR ({Gal‑α1‑3Gal‑β glyco‑aspartic acid}-QGSFLTKGPSKLNDR) [Seq. Id. No. 7, CD4 receptor peptide with Gal-α1-3Gal-β glyco-aspartic acid linked to its N-terminal end] | neg (Neg = negative <0.30) | neg (Neg = negative <0.30) | neg (Neg = negative <0.30) | 0.48 | 0.48 | 0.55 | 0.47 | 0.47 | 0.48 | neg (Neg = negative <0.30) | neg (Neg = negative <0.30) | neg (Neg = negative <0.30) | Highest neutralization values | greater neutralization | 90% | – | – | – |
| 6 (KILGNQGSFLTKGPS; Homo sapien) [compound 6] | neg (Neg = negative <0.30) | neg (Neg = negative <0.30) | neg (Neg = negative <0.30) | 0.50 | 0.42 | 0.60 | neg (Neg = negative <0.30) | neg (Neg = negative <0.30) | neg (Neg = negative <0.30) | neg (Neg = negative <0.30) | – | – | – | – | – | – | – | – |
